Source: publication PMC5766998, “Determination of the native features of the exoglucanase Cel48S from Clostridium thermocellum” (Biotechnology for Biofuels, 2018)

Molecular target: T1, ctCel48S_CD (Acetivibrio thermocellus, UniProt C7ED31)
T1 construct: GH48 catalytic domain, dockerin removed by inserted stop codon; C-terminal Gly5 linker and His12 tag kept; purified from culture supernatant of C. thermocellum DSM1313 (secreted); monomer
Test: reducing sugars released, HPLC
Assay type: biochemical
Settings: 1% (wt/vol) substrate, 50 mM succinate pH 5.7, 10 mM CaCl2, 55 °C, 5 h

T1 sequence (C7ED31 entry or part of it): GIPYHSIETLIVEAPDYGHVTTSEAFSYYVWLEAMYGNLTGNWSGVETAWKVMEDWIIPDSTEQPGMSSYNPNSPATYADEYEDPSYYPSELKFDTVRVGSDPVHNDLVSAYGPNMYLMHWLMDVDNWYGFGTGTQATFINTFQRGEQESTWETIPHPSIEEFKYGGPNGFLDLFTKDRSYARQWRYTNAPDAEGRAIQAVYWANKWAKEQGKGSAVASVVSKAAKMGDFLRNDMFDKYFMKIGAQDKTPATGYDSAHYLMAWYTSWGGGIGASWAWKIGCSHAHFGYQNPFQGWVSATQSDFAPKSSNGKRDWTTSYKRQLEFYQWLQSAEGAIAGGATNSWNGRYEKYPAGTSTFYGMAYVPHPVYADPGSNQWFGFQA

Structure (SMILES) | reducing sugars released, HPLC
OC[C@H]1O[C@@H](O[C@H]2[C@H](O)[C@@H](O)[C@H](O[C@H]3[C@H](O)[C@@H](O)[C@H](O[C@H]4[C@H](O)[C@@H](O)C(O)O[C@@H]4CO)O[C@@H]3CO)O[C@@H]2CO)[C@H](O)[C@@H](O)[C@@H]1O (some centres unmarked) [cellotetrose] | ctCel48S_CD could also hydrolyze cellopentose and cellotetrose
OC[C@H]1O[C@@H](O[C@H]2[C@H](O)[C@@H](O)[C@H](O[C@H]3[C@H](O)[C@@H](O)[C@H](O[C@H]4[C@H](O)[C@@H](O)[C@H](O[C@H]5[C@H](O)[C@@H](O)C(O)O[C@@H]5CO)O[C@@H]4CO)O[C@@H]3CO)O[C@@H]2CO)[C@H](O)[C@@H](O)[C@@H]1O (some centres unmarked) [cellopentose] | ctCel48S_CD could also hydrolyze cellopentose and cellotetrose
